Results on one substance are retold here after PMC11563544 (Journal of Cerebral Blood Flow & Metabolism, 2024).

The experiment relates to alpha-2C adrenergic receptor (α2CR). The experiment in a line: in vivo PET receptor occupancy, competition with […]ORM-13070. Set-up: species or system Macaca fascicularis.

BAY 292: the EC50 – broadly, the concentration at which the effect is half-maximal – was 0.03339 ± 0.01191 mg/L.
